# Measured values as given in patent publication US10723998B2, “Application of ethyl p-methoxycinnamate and derivatives thereof in maintaining self-renewal and pluripotency of stem cells” (NORTHEAST NORMAL UNIVERSITY, priority 2015, dated 2020).
# System: Oct4 promoter
# Test: Luciferase reporter gene assay of derivatives on Oct4 expression (co-transfection with pCMV-β-gal) in P19 cells
# Assay type: cell-based, mouse
# Conditions: 5 μg/mL, 12-24 h, DMSO control, FIG. 6
# Description: The effect of derivatives of ethyl p-methoxycinnamate on Oct4 expression was assayed by a luciferase reporter gene method, the derivatives including diethyl 4-methoxybenzalmalonate, ethyl 3-(3-methoxy-4-methoxycarbonylmethoxyphenyl)acrylate, diethyl 4-acetoxybenzylidenemalonate, chlorogenic acid, ethyl cinnamate, 3-cinnamoyloxypropyl 3-propylacrylate, ethyl 2-cyano-3,3-diphenylacrylate, ethyl 2,6-dichlorocinnamate, diethyl 4-chlorobenzylidenemalonate, ethyl 4-aminocinnate, ethyl 3-cyanocinnamate, ethyl 4-nitrocinnamate, 3-[3-(4-methoxyphenyl)acryloyloxymethyl]benzyl 3-(4-methoxyphenyl)acrylate, 4-[3-(4-methoxyphenyl)acryloyloxy]butyl-2-ynyl 3-(4-methoxyphenyl)acrylate, ethyl indole-2-carboxylate, and ethyl 6-methoxy-1-benzofuran-2-carboxylate.
# One day before transfection, mouse teratoma cells P19 were inoculated into a 24-well cell culture plate at a density of 1×10^5 cells/well, to make the cells grown to about 80% before transfection. A liposomal transfection reagent Entranster™-D from Engreen company was used to perform the transfection according to the instructions, to co-transfect the P19 cells with target plasmid (PGL3-Oct4P-Basic or pGL3-Basic) and reference plasmid (pCMV-β-gal). The total amount of the plasmid used for transfection was 1 μg/well (the target plasmid:the reference plasmid=2:1). The plasmid was added to 25 μL of serum-free DMEM culture medium, and fully mixed. 3 μL of the transfection reagent was then added to another 25 μL of serum-free DMEM culture medium, mixed well, and allowed to stand for 5 min. The DMEM culture medium containing the transfection reagent was then added to the DMEM culture medium containing the plasmid, and the mixture was immediately pipetted more than 10 times, and allowed to stand at room temperature for 30 min. 250 μL of DMEM culture medium containing 10% fetal calf serum was added to the mixed solution, and gently mixed well. The original cell culture medium in the 24-well plate was discarded, and replaced with the above mixed solution. After being cultured for 4-6 h in a 5% CO2 cell incubator at 37° C., the original culture medium was absorbed and removed, and replaced with 500 μL of DMEM culture medium containing 10% fetal calf serum. […] After subsequent continuous culture for 12-24 h, the cells were lysed, and the luciferase activity was assayed.
# Luciferase Reporter Assay System and FluoStar Optima were used to assay the luciferase activity of the transfected cell lysis solution. To 45 μL of the cell lysis solution was added 5 μL of Assay Cocktail reagent, after they were mixed well, 100 μL of Luciferin reaction solution was added, and fluorescence counting in 2 s was measured using FluoStar Optima instrument, which reflected the activity level of the studied plasmid reporter genes expressing firefly luciferase. To another 20 μL of the cell lysis solution was added 37.5 μL of β-gal Buffer followed by 12.5 μL of ONPG (6 mg/mL), and after they were mixed well, they were allowed to stand at 37° C. for 30 min. An absorption value at 450 nm was assayed using a microplate reader, which reflected the activity level of internal reference plasmid pCMV-β-gal expressing β-galactosidase. The ratio between the activity of the firefly luciferase and the activity of the β-galactosidase (β-gal) excluded the difference of the sample transfection efficiency, and could relatively objectively reflect the difference of promoter activity between samples. The relative luciferase activity of different samples was calculated through the following equation: […]
row,Structure (SMILES),effect of derivatives on the activity of the Oct4 promoter (relative luciferase activity)
1,O=C(/C=C/c1ccc(O)c(O)c1)O[C@@H]1C[C@](O)(C(=O)O)C[C@@H](O)[C@H]1O [chlorogenic acid],have the effect of enhancing the activity of the Oct4 promoter
2,CCCC=CC(=O)OCCCOC(=O)C=Cc1ccccc1 [3-cinnamoyloxypropyl 3-propylacrylate],have the effect of enhancing the activity of the Oct4 promoter
3,CCOC(=O)C(=Cc1ccc(OC(C)=O)cc1)C(=O)OCC [diethyl 4-acetoxybenzylidenemalonate],have the effect of enhancing the activity of the Oct4 promoter
4,COc1ccc(C=CC(=O)OCc2cccc(COC(=O)C=Cc3ccc(OC)cc3)c2)cc1 [3-[3-(4-methoxyphenyl)acryloyloxymethyl]benzyl 3-(4-methoxyphenyl)acrylate],have the effect of enhancing the activity of the Oct4 promoter
5,CCOC(=O)C=Cc1ccccc1 [ethyl cinnamate],have the effect of enhancing the activity of the Oct4 promoter
6,COc1ccc(C=CC(=O)OCC#CCOC(=O)C=Cc2ccc(OC)cc2)cc1 [4-[3-(4-methoxyphenyl)acryloyloxy]butyl-2-ynyl 3-(4-methoxyphenyl)acrylate],have the effect of enhancing the activity of the Oct4 promoter
7,CCOC(=O)c1cc2ccccc2[nH]1 [ethyl indole-2-carboxylate],have the effect of enhancing the activity of the Oct4 promoter
8,"CCOC(=O)C(C#N)=C(c1ccccc1)c1ccccc1 [ethyl 2-cyano-3,3-diphenylacrylate]",have the effect of enhancing the activity of the Oct4 promoter
